Patent US20250170240A1, “MODIFIED INVARIANT NATURAL KILLER T CELLS EXPRESSING A CHIMERIC ANTIGEN RECEPTOR AND USES THEREOF” (Tinkeso Therapeutics, Inc., priority 2022, published 2025)

Assays:
CD1d^+ target cells [1] = experiment: Cytokine release assay (IFN-γ ELISA), glycolipid-pulsed CD1d+ target cells; type: cell-based, human; settings: pulsed MV4:11-hfflucN; 3-month cultured INKT47 CD19 CAR (allo) and iNKT48 CD19 CAR/GFP (allo); FIG. 13C
Experimental: Cytokine Release Assays: Cytokine release assays were performed by co-culturing 1-2×10^5 T cells with 2×10^4 target cells per well in duplicate in 96-well flat-bottom plates. After 24 h, supernatants were assayed using a LEGEND MAX Human IFN-γ ELISA kit (BioLegend, Cat No. 430107).

CD1d^+ target cells [2] = experiment: Luciferase-based killing assay, glycolipid- or DMSO-pulsed CD1d+ target cells; type: cell-based, human; settings: effector thawed iNKT47 CD19 CAR (allo), FIG. 13B
Experimental: Luciferase-Based Killing Assay: αGalCer or DMSO pulsed target cells were prepared by incubating target cells (2×10^5/mL) at 37° C., 5% CO2 with αGalCer (200 ng/ml) or DMSO (1:500 of 10% stock) overnight and used for cytotoxicity assays after spinning to remove medium containing αGalCer or DMSO. Luciferase-expressing target cells (1×104 in 50 μL per well) were incubated with 50 μL of INKT cells per well at different effector T cell: target cell (E/T) ratios in quadruplicate in a 96-well flat-bottom white polystyrene microplate (Corning, Cat No. 3912). A spontaneous or maximal killing was set up by adding 50 μL per well of culture medium or 1% Triton X-100 instead of INKT cells, respectively. After a standard 4 h or 16 h (as indicated) incubation at 37° C., 10 μL of D-luciferin (1:10 of 30 mg/ml stock) or 50 μL (1:50 of 30 mg/mL) (Caliper Life Sciences, Cat No. XR-1001) was added to each well. Luciferase activity was measured using a Synergy 2 microplate reader (BioTek). Percent specific lysis was calculated as follows: […]

With CCCCCCCCCCCCCC[C@@H](O)[C@@H](O)[C@H](CO[C@H]1O[C@H](CO)[C@H](O)[C@H](O)[C@H]1O)NC(=O)CCCCCCCCCCc1ccc(F)cc1 [7DW8-5] the “potency in stimulating iNKT cells to produce IFN-γ” value (CD1d^+ target cells [1]) was “more potent than αGalCer”, the “potency relative to αGalCer in sensitizing CD1d+ target cells” value (CD1d^+ target cells [2]; Molm13) was “at least 16 fold” and the “potency relative to αGalCer in sensitizing CD1d+ target cells” value (CD1d^+ target cells [2]; THP1) was no less than 64 fold.
